Values of other authors, collected in patent US20240173233A1, “COSMETIC SACHET FOR REDUCING AGE-RELATED SYMPTOMS IN HUMAN SKIN” (Bloo Pharmapeutica Inc., priority 2022, published 2024).

How the values were obtained:
[1] = test system: cultured human skin fibroblasts derived from healthy donors and from patients with progeria
[2] = test system: skin fibroblast; conditions: in comparison with other widely used general and mitochondrial-targeting antioxidants
[3] = test system: 3D skin model
[4] = test system: elastin and collagen 2A1; conditions: MB treatment of skin

With `CN(C)c1ccc2nc3ccc(=[N+](C)C)cc-3sc2c1.[Cl-]` [methylene blue, [7-(dimethylamino)phenothiazine-3-ylidene]-dimethylazanium chloride] as the compound, how does the “reactive oxygen species (ROS) scavenging efficacy” value [1] read?
Its value is “potent reactive oxygen species (ROS) scavenging efficacy”.

And the delaying cellular senescence [2]?
The delaying cellular senescence was “more effective”.

And the “stimulating skin fibroblast proliferation” value [2]?
The value was “more effective”.

And the dermis thickness [3]?
The dermis thickness was “increased skin hydration and dermis thickness”.

What about the skin hydration [3] of the same compound?
The skin hydration was “increased skin hydration”.

And the skin viability [3]?
Its skin viability is “improved skin viability”.

And the wound healing [3]?
Its wound healing is “promoted wound healing”.

What about the “expression of extracellular matrix proteins” value [4] of the same compound?
Its value is “upregulation of elastin and collagen 2A1”.
